The source made the active and inactive calls. No cut-off for these calls is given here.
How the values were obtained:
HeLa = assay: Cytotoxicity against human HeLa cells assessed as reduction in cell viability measured after 24 hrs by MTT assay; format: functional, cell-based
MCF7 = assay: Cytotoxicity against human MCF7 cells assessed as reduction in cell viability measured after 24 hrs by MTT assay; conditions: MCF7, 24 h
A549 = assay: Cytotoxicity against human A549 cells assessed as reduction in cell viability measured after 24 hrs by MTT assay; conditions: A549, 24 h
HT-29 [1] = assay: Cytotoxicity against human HT-29 cells assessed as reduction in cell viability measured after 24 hrs by MTT assay; format: functional, cell-based; conditions: HT-29, 24 h
MDA-MB-231 = assay: Cytotoxicity against human MDA-MB-231 cells assessed as reduction in cell viability measured after 24 hrs by MTT assay; format: functional, cell-based; conditions: MDA-MB-231, 24 h
[2] = Cytotoxicity against human A549/TxR cells assessed as reduction in cell viability measured after 24 hrs by MTT assay; format: functional, cell-based
[3] = Half-life in Sprague-Dawley rat at 10 mg/kg, iv by HPLC-MS/MS analysis; format: ADME, organism-based; conditions: in vivo
[4] = AUC in Sprague-Dawley rat at 10 mg/kg, iv by HPLC-MS/MS analysis; format: ADME, organism-based; parameters: dose 10 mg/kg, route iv; conditions: in vivo
[5] = Resistance index, ratio of IC50 for human A549/TxR cells to IC50 for human A549 cells; format: functional
[6] = Cmax in Sprague-Dawley rat at 10 mg/kg, iv by HPLC-MS/MS analysis; format: ADME, organism-based; parameters: dose 10 mg/kg, route iv; conditions: in vivo
[7] = Tmax in Sprague-Dawley rat at 10 mg/kg, iv by HPLC-MS/MS analysis; format: ADME, organism-based; conditions: in vivo
[8] = Clearance in Sprague-Dawley rat at 10 mg/kg, iv by HPLC-MS/MS analysis; format: ADME, organism-based; conditions: in vivo
[9] = Resistance index, ratio of IC50 for human MCF7/TxR cells to IC50 for human MCF7 cells; format: functional
[10] = Cytotoxicity against human MCF7/TxR cells assessed as reduction in cell viability measured after 24 hrs by MTT assay; format: functional, cell-based
Sus scrofa = species: Sus scrofa; assay: […] of porcine brain tubulin polymerization at 5 uM measured at 1 min interval for 60 mins by fluorescence assay
HT-29 [11] = assay: Antitumor activity against human HT-29 cells xenografted in BALB/c nude mouse assessed as reduction in tumor weight at 10 mg/kg, ip administered as 2 days interval for 3 weeks and measured 3 weeks post-initial dosing relative to control; format: functional; parameters: scale not given: the % may be the effect or the level left

| Compound | IC50 (HeLa) [µM] | IC50 (MCF7) [µM] | IC50 (A549) [µM] | IC50 (HT-29 [1]) [µM] | IC50 (MDA-MB-231) [µM] | other results |
| --- | --- | --- | --- | --- | --- | --- |
| COC(=O)c1cc2c(cc1Nc1ccc(OC)c(OC)c1)OCCO2 | 2.11 | 11.3 | 1 | 0.55 | 5.46 | – |
| COc1cc(Nc2cc3c(cc2C(=O)O)OCO3)cc(OC)c1OC | 5.18 | 15.1 | 5.42 | 1.41 | 2.3 | – |
| COc1c(Br)cc(Nc2cc3c(cc2C(=O)O)OCO3)cc1Br | 6.9 | 16 | 15.9 | 3.13 | 5.6 | – |
| NNC(=O)c1cc2c(cc1Nc1ccc3c(c1)OCO3)OCCO2 | 3.54 | > 20 | > 20 | 1.02 | > 20 | – |
| COc1cc(Nc2cc3c(cc2C(=O)NN)OCCO3)cc(OC)c1OC | 0.32 | 0.37 | 0.74 | 0.13 | 0.36 | – |
| COC(=O)c1cc2c(cc1Nc1cc(OC)c(OC)c(OC)c1)OCO2 | 0.39 | 0.98 | 2.67 | 0.38 | 0.74 | – |
| COC(=O)c1cc2c(cc1Nc1ccc3c(c1)OCO3)OCCO2 | 5.55 | 11.2 | > 20 | 4.61 | 3.13 | – |
| COc1cc(C(=O)Nc2cc3c(cc2C(=O)NN)OCCO3)cc(OC)c1OC | > 20 | > 20 | > 20 | > 20 | > 20 | – |
| COc1c(F)cc(Nc2cc3c(cc2C(=O)NN)OCCO3)cc1F | 2.56 | 15.4 | 1.2 | 1.31 | 5.92 | – |
| COC(=O)c1cc2c(cc1Nc1cc(Br)c(OC)c(Br)c1)OCO2 | 3.4 | 6.46 | 2.64 | 2.02 | 11.7 | – |
| COc1cc([C@@H]2c3cc4c(cc3[C@H](O)[C@H]3COC(=O)[C@H]23)OCO4)cc(OC)c1OC [PODOFILOX] | 0.044 | 0.039 | 0.059 | 0.023 | 0.017 | IC50 [2]: 0.073 µM; t1/2 [3]: 12.6 min; AUC [4]: 2950 µg/L.hr; Ratio IC50 [5]: 1.2; Cmax [6]: 3530 ng/mL; Tmax [7]: 6 min; CL [8]: 56.5 mL/min/kg; Ratio IC50 [9]: 1.1; IC50 [10]: 0.043 µM |
| COc1c(F)cc(Nc2cc3c(cc2C(N)=O)OCCO3)cc1F | 6.12 | 12.2 | 2.21 | 0.86 | 1.7 | – |
| COc1c(Br)cc(Nc2cc3c(cc2C(=O)NN)OCCO3)cc1Br | 0.24 | 0.44 | 1.14 | 0.23 | 0.47 | – |
| COc1ccc(Nc2cc3c(cc2C(N)=O)OCCO3)cc1OC | 5.29 | 13.1 | 0.91 | 0.85 | > 20 | – |
| COC(=O)c1cc2c(cc1Nc1cc(Br)c(OC)c(Br)c1)OCCO2 | 2.49 | 3.37 | 10.1 | 1.47 | 6.46 | – |
| COc1c(F)cc(C(=O)Nc2cc3c(cc2C(=O)NN)OCCO3)cc1F | > 20 | > 20 | > 20 | > 20 | > 20 | – |

| Compound | IC50 (HeLa) [µM] | IC50 (MCF7) [µM] | IC50 (A549) [µM] | IC50 (HT-29 [1]) [µM] | IC50 (MDA-MB-231) [µM] | other results |
| --- | --- | --- | --- | --- | --- | --- |
| COC(=O)c1cc2c(cc1NC(=O)c1cc(Br)c(OC)c(Br)c1)OCCO2 | > 20 | > 20 | > 20 | > 20 | > 20 | – |
| CC(=O)O[C@H]1C(=O)[C@@]2(C)[C@H]([C@H](OC(=O)c3ccccc3)[C@]3(O)C[C@H](OC(=O)[C@H](O)[C@@H](NC(=O)c4ccccc4)c4ccccc4)C(C)=C1C3(C)C)[C@]1(OC(C)=O)CO[C@@H]1C[C@@H]2O [PACLITAXEL] | 0.039 | – | – | 0.011 | 0.007 | IC50 [2]: 2.92 µM; Activity (Sus scrofa): Active; Activity (HT-29 [11]): 77.1%; IC50 [10]: 8.35 µM |
| COc1ccc(Nc2cc3c(cc2C(=O)NN)OCCO3)cc1 | > 20 | > 20 | > 20 | > 20 | > 20 | – |
| COC(=O)c1cc(OC)c(OC)cc1Nc1cc(Br)c(OC)c(Br)c1 | > 20 | > 20 | > 20 | > 20 | > 20 | – |
| COc1cc2c(c(OC)c1OC)-c1ccc(OC)c(=O)cc1[C@@H](NC(C)=O)CC2 [COLCHICINE] | 0.008 | – | 0.031 | 0.25 | 0.097 | – |
| COC(=O)c1cc2c(cc1Nc1cc(F)c(OC)c(F)c1)OCCO2 | 5.22 | > 20 | 1.55 | 4.47 | 4.1 | – |
| COc1cc(Nc2cc3c(cc2C(=O)O)OCCO3)cc(OC)c1OC | 2.91 | 6.76 | 11.5 | 2.16 | 6.79 | – |
| COc1cc(C(=O)Nc2cc3c(cc2C(=O)O)OCCO3)cc(OC)c1OC | > 20 | > 20 | > 20 | > 20 | > 20 | – |
| COC(=O)c1cc2c(cc1NC(=O)c1cc(F)c(OC)c(F)c1)OCCO2 | > 20 | > 20 | > 20 | > 20 | > 20 | – |
| COC(=O)c1cc2c(cc1NC(=O)c1cc(OC)c(OC)c(OC)c1)OCCO2 | > 20 | > 20 | > 20 | > 20 | > 20 | – |
| COC(=O)c1cc2c(cc1Nc1ccc(OC)cc1)OCCO2 | > 20 | > 20 | > 20 | > 20 | > 20 | – |
| COC(=O)c1cc2c(cc1Nc1cc(F)c(OC)c(F)c1)OCO2 | 10.6 | > 20 | > 20 | 8.53 | > 20 | – |
| COc1cc(Nc2cc3c(cc2C(=O)NN)OCO3)cc(OC)c1OC | 1.19 | 1.97 | 1.4 | 0.53 | 1.36 | – |
| COC(=O)c1cc2c(cc1Nc1ccc3c(c1)OCCO3)OCCO2 | 12.8 | 8.6 | 6.36 | 4.64 | 16.6 | – |
| COc1c(F)cc(Nc2cc3c(cc2C(=O)NN)OCO3)cc1F | 5.88 | > 20 | > 20 | 3.65 | > 20 | – |
| COC(=O)c1cc(OC)c(OC)cc1Nc1cc(OC)c(OC)c(OC)c1 | > 20 | > 20 | > 20 | > 20 | > 20 | – |
